These results are taken from patent publication US7855174B2 (priority 2007, dated 2010).

Read-outs that look alike come from different tables or passages of the source.

Assay [1] has as its system rat mesenteric arteries. The experiment in a line: tissue or blood.
Assay [2] has as its system MLC. Details: species or system rat.

In the case of `NC[C@H](O)c1ccc(O)c(O)c1` [NE, norepinephrine], the EC50 in assay [1] (read-out: EC50 of concentration-contraction relationship) was 1.1 µM; in assay [1] (read-out: apparent EC50 for NE (contraction)), 0.034 µM; in assay [1] (read-out: approximate EC50 in isolated vessels), around 1 µM. Also, the “change of Ser19 pMLC and total pMLC with concentration” value in assay [2] is “increases in both total pMLC and Ser19 pMLC”.
